Test results: article PMC9598367, “Discovery and Preliminary Structure-Activity Investigation of 3-Substituted-1H-imidazol-5-yl-1H-indoles with In Vitro Activity towards Methicillin-Resistant Staphylococcus aureus” (Antibiotics, 2022)

SMILES	melting point [°C]
Brc1ccc2[nH]cc(-c3cncn3CCc3ccc4c(c3)OCO4)c2c1 [Compound 41, 3-(1-(2-(Benzo[d][1,3]dioxol-5-yl)ethyl)-1H-imidazol-5-yl)-5-bromo-1H-indole]	176 to 177
Clc1ccc2[nH]cc(-c3cncn3Cc3ccccc3)c2c1 [Compound 46, 3-(1-Benzyl-1H-imidazol-5-yl)-5-chloro-1H-indole]	78 to 79
COc1ccc(Cn2cncc2-c2c[nH]c3cc(F)ccc23)cc1 [Compound 13, 6-Fluoro-3-(1-(4-methoxybenzyl)-1H-imidazol-5-yl)-1H-indole]	181 to 182
Fc1ccc2c(-c3cncn3CCc3ccc4c(c3)OCO4)c[nH]c2c1 [Compound 38, 3-(1-(2-(Benzo[d][1,3]dioxol-5-yl)ethyl)-1H-imidazol-5-yl)-6-fluoro-1H-indole]	188 to 189
Ic1ccc(Cn2cncc2-c2c[nH]c3ccccc23)cc1 [Compound 4, 3-(1-(4-Iodobenzyl)-1H-imidazol-5-yl)-1H-indole]	> 200
COc1ccc2[nH]cc(-c3cncn3CCc3ccccc3)c2c1 [Compound 56, 5-Methoxy-3-(1-phenethyl-1H-imidazol-5-yl)-1H-indole]	51 to 52
Clc1cccc2[nH]cc(-c3cncn3CCc3ccccc3)c12 [Compound 53, 4-Chloro-3-(1-phenethyl-1H-imidazol-5-yl)-1H-indole]	73 to 74
Clc1cccc2[nH]cc(-c3cncn3Cc3c[nH]c4ccccc34)c12 [Compound 75, 3-(1-((1H-Indol-3-yl)methyl)-1H-imidazol-5-yl)-4-chloro-1H-indole]	195 to 196
COc1ccc(OC)c(CCn2cncc2-c2c[nH]c3cc(Cl)ccc23)c1 [Compound 33, 6-Chloro-3-(1-(2,5-dimethoxyphenethyl)-1H-imidazol-5-yl)-1H-indole]	80 to 81
COc1ccc(CCn2cncc2-c2c[nH]c3cccc(Cl)c23)cc1 [Compound 68, 4-Chloro-3-(1-(4-methoxyphenethyl)-1H-imidazol-5-yl)-1H-indole]	76 to 77
CCCCCn1cncc1-c1c[nH]c2cccc(F)c12	147 to 148
COc1ccc2c(-c3cncn3Cc3ccccc3)c[nH]c2c1 [Compound 50, 3-(1-Benzyl-1H-imidazol-5-yl)-6-methoxy-1H-indole]	66 to 67
Fc1cccc2c(-c3cncn3CCc3ccccc3)c[nH]c12 [Compound 52, 7-Fluoro-3-(1-phenethyl-1H-imidazol-5-yl)-1H-indole]	45 to 46
Clc1ccc2c(-c3cncn3Cc3ccc(I)cc3)c[nH]c2c1 [Compound 8, 6-Chloro-3-(1-(4-iodobenzyl)-1H-imidazol-5-yl)-1H-indole]	> 200
COc1ccc(OC)c(CCn2cncc2-c2c[nH]c3cc(Br)ccc23)c1 [Compound 35, 6-Bromo-3-(1-(2,5-dimethoxyphenethyl)-1H-imidazol-5-yl)-1H-indole]	133 to 134

The remaining lines, values ahead:

melting point [°C]	SMILES
179 to 180	Clc1cccc2c(-c3cncn3Cc3ccccc3)c[nH]c12 [Compound 47, 3-(1-Benzyl-1H-imidazol-5-yl)-7-chloro-1H-indole]
155 to 156	c1ccc(-c2cncn2CCc2c[nH]c3ccccc23)cc1 [Compound 113, 3-(2-(5-Phenyl-1H-imidazol-1-yl)ethyl)-1H-indole]
47 to 48	Clc1cccc2c(-c3cncn3CCc3ccccc3)c[nH]c12 [Compound 54, 7-Chloro-3-(1-phenethyl-1H-imidazol-5-yl)-1H-indole]
195 to 196	c1ccc2c(-c3cncn3CCc3ccc4c(c3)OCO4)c[nH]c2c1 [Compound 36, 3-(1-(2-(Benzo[d][1,3]dioxol-5-yl)ethyl)-1H-imidazol-5-yl)-1H-indole]
164 to 165	CCCCCn1cncc1-c1c[nH]c2c(F)cccc12
> 200	Clc1ccc2[nH]cc(-c3cncn3CCc3ccc4c(c3)OCO4)c2c1 [Compound 39, 3-(1-(2-(Benzo[d][1,3]dioxol-5-yl)ethyl)-1H-imidazol-5-yl)-5-chloro-1H-indole]
181 to 182	Fc1cccc2[nH]cc(-c3cncn3CCc3ccccc3)c12 [Compound 51, 4-Fluoro-3-(1-phenethyl-1H-imidazol-5-yl)-1H-indole]
152 to 153	COc1ccc2[nH]cc(-c3cncn3CCc3c[nH]c4ccccc34)c2c1 [Compound 87, 3-(1-(2-(1H-Indol-3-yl)ethyl)-1H-imidazol-5-yl)-5-methoxy-1H-indole]
67 to 68	COc1ccc(Cn2cncc2-c2c[nH]c3ccc(OC)cc23)cc1 [Compound 64, 5-Methoxy-3-(1-(4-methoxybenzyl)-1H-imidazol-5-yl)-1H-indole]
188 to 189	CCCCCn1cncc1-c1c[nH]c2cccc(Cl)c12
175 to 176	COc1ccc(CCn2cncc2-c2c[nH]c3c(F)cccc23)cc1 [Compound 67, 7-Fluoro-3-(1-(4-methoxyphenethyl)-1H-imidazol-5-yl)-1H-indole]
130 to 131	COc1ccc(OC)c(CCn2cncc2-c2c[nH]c3cc(F)ccc23)c1 [Compound 31, 3-(1-(2,5-Dimethoxyphenethyl)-1H-imidazol-5-yl)-6-fluoro-1H-indole]
70 to 71	Clc1ccc2[nH]cc(-c3cncn3CCc3c[nH]c4ccccc34)c2c1 [Compound 84, 3-(1-(2-(1H-Indol-3-yl)ethyl)-1H-imidazol-5-yl)-5-chloro-1H-indole]
177 to 178	Fc1cccc2[nH]cc(-c3cncn3Cc3ccccc3)c12 [Compound 43, 3-(1-Benzyl-1H-imidazol-5-yl)-4-fluoro-1H-indole]
83 to 84	COc1ccc(CCn2cncc2-c2c[nH]c3cccc(Br)c23)cc1 [Compound 70, 4-Bromo-3-(1-(4-methoxyphenethyl)-1H-imidazol-5-yl)-1H-indole]
97 to 98	COc1ccc2[nH]cc(-c3cncn3Cc3c[nH]c4ccccc34)c2c1 [Compound 79, 3-(1-((1H-Indol-3-yl)methyl)-1H-imidazol-5-yl)-5-methoxy-1H-indole]
204 to 205	Brc1cccc2[nH]cc(-c3cncn3CCc3ccccc3)c12 [Compound 55, 4-Bromo-3-(1-phenethyl-1H-imidazol-5-yl)-1H-indole]
81 to 82	COc1ccc2c(-c3cncn3CCc3c[nH]c4ccccc34)c[nH]c2c1 [Compound 88, 3-(1-(2-(1H-Indol-3-yl)ethyl)-1H-imidazol-5-yl)-6-methoxy-1H-indole]
65 to 66	COc1ccc(Cn2cncc2-c2c[nH]c3cc(OC)ccc23)cc1 [Compound 65, 6-Methoxy-3-(1-(4-methoxybenzyl)-1H-imidazol-5-yl)-1H-indole]
150 to 151	COc1ccc(OC)c(CCn2cncc2-c2c[nH]c3ccc(F)cc23)c1 [Compound 30, 3-(1-(2,5-Dimethoxyphenethyl)-1H-imidazol-5-yl)-5-fluoro-1H-indole]
165 to 166	Clc1cccc2c(-c3cncn3Cc3c[nH]c4ccccc34)c[nH]c12 [Compound 77, 3-(1-((1H-Indol-3-yl)methyl)-1H-imidazol-5-yl)-7-chloro-1H-indole]
